Data as given in US20080051466A1, “Isoalpha acid based protein kinase modulation cancer treatment” (Metaproteomics, LLC, priority 2006, published 2008).

Assays:
Assay in all cases: KinaseProfiler Assay
Format in all cases: biochemical
PRAK = PRAK (Homo sapiens, UniProt Q8IW41); settings: read-out: PRAK, % of Control
PAK3 = PAK3 (Homo sapiens, UniProt O75914); settings: read-out: PAK3, % of Control
PrKX = PrKX (Homo sapiens, UniProt P51817); settings: read-out: PrKX, % of Control
JAK3 = target: T1, JAK3 (Homo sapiens, UniProt P52333); settings: read-out: JAK3, % of Control
T1 sequence (P52333 1-1124): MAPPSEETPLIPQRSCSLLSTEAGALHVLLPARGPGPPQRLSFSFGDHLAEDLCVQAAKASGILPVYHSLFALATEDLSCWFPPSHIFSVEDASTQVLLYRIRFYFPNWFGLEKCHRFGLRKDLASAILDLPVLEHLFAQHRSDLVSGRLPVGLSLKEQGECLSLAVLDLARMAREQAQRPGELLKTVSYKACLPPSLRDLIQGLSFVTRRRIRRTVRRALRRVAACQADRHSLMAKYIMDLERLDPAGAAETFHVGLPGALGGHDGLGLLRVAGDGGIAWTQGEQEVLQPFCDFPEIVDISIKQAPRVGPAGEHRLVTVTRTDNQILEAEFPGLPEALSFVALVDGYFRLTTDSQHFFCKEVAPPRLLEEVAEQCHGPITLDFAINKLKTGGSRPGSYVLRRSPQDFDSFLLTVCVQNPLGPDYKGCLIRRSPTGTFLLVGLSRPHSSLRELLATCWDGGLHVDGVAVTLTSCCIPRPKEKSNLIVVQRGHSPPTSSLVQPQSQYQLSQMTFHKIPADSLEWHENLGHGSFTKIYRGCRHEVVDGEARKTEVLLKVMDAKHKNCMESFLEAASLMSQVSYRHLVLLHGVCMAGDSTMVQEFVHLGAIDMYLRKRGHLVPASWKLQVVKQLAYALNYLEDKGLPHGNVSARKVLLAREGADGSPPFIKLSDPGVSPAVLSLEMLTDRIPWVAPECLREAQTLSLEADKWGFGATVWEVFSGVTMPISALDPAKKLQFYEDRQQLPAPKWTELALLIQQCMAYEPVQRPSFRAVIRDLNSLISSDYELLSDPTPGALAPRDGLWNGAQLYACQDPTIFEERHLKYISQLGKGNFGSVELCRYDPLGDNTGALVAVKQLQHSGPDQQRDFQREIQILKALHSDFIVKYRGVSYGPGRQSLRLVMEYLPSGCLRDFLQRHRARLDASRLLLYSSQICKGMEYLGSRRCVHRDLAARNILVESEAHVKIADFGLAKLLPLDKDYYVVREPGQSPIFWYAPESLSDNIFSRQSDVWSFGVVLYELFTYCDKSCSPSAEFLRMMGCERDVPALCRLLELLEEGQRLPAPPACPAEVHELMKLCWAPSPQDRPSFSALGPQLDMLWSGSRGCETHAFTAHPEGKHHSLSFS

HIPK2 = HIPK2 (Homo sapiens, UniProt Q9H2X6); settings: read-out: HIPK2, % of Control
GSK3β = GSK3β (Homo sapiens, UniProt P49841); settings: read-out: GSK3β, % of Control
GSK3β, sequence (P49841 whole entry): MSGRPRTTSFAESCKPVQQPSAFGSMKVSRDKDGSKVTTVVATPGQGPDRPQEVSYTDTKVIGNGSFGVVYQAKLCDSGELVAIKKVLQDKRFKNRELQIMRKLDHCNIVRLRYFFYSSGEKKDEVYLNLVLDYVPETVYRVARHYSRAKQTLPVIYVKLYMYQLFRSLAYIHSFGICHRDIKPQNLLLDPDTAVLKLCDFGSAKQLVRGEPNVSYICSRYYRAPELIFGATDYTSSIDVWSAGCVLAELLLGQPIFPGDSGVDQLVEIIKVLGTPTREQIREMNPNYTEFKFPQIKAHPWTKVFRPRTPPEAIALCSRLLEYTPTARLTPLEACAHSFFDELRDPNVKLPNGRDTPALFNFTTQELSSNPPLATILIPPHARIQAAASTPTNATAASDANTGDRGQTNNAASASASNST

p70S6K = p70S6K (Homo sapiens, UniProt P23443); settings: read-out: p70S6K, % of Control
p70S6K, sequence (P23443 whole entry): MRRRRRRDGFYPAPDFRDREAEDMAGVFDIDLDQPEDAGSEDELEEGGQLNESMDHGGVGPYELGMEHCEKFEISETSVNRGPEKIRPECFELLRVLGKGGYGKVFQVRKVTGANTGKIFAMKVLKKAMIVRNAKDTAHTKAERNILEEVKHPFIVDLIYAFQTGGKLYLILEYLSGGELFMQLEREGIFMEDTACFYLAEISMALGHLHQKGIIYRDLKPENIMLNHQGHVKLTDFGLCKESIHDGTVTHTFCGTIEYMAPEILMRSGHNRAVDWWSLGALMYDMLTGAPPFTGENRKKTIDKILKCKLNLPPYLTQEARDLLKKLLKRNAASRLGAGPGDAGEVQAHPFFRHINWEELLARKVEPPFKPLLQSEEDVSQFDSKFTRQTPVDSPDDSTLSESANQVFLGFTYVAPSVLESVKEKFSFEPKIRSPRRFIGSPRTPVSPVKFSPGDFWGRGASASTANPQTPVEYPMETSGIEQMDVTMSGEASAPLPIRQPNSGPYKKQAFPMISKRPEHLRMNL

CDK1/cyclinB = CDK1/cyclinB (Homo sapiens, UniProt P06493); settings: read-out: CDK1/cyclinB, % of Control
CDK1/cyclinB, sequence (P06493 whole entry): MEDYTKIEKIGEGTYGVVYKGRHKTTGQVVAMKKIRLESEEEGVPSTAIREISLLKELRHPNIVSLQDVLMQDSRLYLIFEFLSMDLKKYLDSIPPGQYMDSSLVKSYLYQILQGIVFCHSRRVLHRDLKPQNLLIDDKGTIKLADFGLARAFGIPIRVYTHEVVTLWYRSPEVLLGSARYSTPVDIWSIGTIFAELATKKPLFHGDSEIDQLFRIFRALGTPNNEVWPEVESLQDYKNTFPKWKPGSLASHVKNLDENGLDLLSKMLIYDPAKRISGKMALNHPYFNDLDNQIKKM
CDK1/cyclinB, sequence (P14635 whole entry partner): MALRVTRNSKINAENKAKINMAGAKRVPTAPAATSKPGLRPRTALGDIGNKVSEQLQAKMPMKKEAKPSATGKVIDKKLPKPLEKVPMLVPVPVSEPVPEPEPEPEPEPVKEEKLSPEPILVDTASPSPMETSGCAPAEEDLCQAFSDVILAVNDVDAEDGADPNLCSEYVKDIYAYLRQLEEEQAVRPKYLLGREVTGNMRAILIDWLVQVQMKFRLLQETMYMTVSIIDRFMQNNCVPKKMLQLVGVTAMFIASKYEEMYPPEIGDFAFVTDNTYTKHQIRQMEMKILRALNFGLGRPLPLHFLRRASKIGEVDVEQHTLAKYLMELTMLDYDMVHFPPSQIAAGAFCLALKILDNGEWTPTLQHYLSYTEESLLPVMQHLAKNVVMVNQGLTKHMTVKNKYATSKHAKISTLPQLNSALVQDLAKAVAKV

PKCβII = PKCβII (Homo sapiens, UniProt P05771); settings: read-out: PKCβII, % of Control
SGK = SGK (Homo sapiens, UniProt O00141); settings: 5 ug/ml; read-out: SGK, % of Control
CDK2/cyclinA = CDK2/cyclinA (Homo sapiens, UniProt P24941); settings: read-out: CDK2/cyclinA, % of Control
DAPK2 = DAPK2 (Homo sapiens, UniProt Q9UIK4); settings: read-out: DAPK2, % of Control
DAPK2, sequence (Q9UIK4 whole entry): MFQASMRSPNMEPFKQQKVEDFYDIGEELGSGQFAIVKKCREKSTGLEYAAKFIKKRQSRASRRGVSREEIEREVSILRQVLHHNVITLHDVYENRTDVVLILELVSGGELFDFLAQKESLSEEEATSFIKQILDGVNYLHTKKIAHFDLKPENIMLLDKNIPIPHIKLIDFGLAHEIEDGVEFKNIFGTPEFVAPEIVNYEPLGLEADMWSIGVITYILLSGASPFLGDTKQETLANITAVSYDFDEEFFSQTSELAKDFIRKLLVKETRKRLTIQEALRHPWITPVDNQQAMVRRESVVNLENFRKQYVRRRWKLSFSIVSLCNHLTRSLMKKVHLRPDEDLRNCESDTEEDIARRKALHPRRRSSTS

MSK2 = MSK2 (Homo sapiens, UniProt O75676); settings: read-out: MSK2, % of Control
MSK2, sequence (O75676 whole entry): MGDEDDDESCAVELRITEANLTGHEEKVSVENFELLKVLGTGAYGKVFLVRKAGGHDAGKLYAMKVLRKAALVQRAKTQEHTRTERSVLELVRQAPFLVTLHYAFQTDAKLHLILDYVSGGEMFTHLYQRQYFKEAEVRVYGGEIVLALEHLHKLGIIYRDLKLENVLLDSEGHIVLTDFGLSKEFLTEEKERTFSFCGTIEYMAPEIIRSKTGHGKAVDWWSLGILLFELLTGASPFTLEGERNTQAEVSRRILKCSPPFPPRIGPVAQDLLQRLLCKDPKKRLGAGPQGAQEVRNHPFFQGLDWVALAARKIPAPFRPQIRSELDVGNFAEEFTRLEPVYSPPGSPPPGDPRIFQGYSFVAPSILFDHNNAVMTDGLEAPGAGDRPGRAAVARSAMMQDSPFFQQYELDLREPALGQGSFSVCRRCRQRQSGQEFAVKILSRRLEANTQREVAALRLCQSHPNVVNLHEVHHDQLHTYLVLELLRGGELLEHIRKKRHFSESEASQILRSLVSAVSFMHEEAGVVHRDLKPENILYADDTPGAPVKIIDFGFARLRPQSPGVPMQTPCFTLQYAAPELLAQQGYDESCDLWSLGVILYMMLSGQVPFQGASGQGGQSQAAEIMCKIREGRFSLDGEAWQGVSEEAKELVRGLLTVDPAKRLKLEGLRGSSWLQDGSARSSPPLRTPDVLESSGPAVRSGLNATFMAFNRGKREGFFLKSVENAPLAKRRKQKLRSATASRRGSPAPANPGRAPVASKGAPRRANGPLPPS

CDK3/cyclinE = CDK3/cyclinE (Homo sapiens, UniProt Q00526); settings: 50 ug/ml; read-out: CDK3/cyclinE, % of Control
ErbB4 = ErbB4 (Homo sapiens, UniProt Q15303); settings: read-out: ErbB4, % of Control
ErbB4, sequence (Q15303 26-1308): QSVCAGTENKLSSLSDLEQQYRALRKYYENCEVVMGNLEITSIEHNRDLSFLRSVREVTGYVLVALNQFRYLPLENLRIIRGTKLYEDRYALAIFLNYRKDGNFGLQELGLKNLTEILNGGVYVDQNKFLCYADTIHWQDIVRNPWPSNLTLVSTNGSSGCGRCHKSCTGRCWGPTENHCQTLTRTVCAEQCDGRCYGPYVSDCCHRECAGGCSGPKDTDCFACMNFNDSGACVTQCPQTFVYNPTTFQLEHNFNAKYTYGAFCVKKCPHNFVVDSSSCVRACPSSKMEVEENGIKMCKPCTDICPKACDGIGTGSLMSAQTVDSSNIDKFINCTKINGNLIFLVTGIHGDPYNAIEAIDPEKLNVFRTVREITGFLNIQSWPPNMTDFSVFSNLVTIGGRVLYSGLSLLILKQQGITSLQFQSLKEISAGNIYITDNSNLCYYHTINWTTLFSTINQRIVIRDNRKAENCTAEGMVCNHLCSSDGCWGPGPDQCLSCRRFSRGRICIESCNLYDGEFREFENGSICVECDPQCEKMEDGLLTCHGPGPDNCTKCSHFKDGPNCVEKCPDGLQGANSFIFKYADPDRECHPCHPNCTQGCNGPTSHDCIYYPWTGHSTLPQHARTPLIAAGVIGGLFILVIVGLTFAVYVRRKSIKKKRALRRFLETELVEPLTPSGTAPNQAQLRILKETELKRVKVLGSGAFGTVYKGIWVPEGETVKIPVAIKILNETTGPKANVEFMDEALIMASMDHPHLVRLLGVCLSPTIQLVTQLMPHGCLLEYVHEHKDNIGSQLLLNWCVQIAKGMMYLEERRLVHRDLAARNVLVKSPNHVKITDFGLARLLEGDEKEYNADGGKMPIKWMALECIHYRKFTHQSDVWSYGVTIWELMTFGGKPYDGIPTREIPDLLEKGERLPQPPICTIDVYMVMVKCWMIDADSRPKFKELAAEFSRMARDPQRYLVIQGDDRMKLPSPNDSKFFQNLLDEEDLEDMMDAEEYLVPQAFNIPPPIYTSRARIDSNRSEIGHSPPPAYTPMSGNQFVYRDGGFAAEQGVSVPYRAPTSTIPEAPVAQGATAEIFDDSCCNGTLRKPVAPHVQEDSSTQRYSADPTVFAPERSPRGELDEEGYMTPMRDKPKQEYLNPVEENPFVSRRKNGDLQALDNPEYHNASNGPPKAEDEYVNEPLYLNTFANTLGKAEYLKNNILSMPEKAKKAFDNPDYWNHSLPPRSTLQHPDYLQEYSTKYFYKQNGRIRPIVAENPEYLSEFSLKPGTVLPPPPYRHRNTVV

PAK3, sequence (O75914 whole entry): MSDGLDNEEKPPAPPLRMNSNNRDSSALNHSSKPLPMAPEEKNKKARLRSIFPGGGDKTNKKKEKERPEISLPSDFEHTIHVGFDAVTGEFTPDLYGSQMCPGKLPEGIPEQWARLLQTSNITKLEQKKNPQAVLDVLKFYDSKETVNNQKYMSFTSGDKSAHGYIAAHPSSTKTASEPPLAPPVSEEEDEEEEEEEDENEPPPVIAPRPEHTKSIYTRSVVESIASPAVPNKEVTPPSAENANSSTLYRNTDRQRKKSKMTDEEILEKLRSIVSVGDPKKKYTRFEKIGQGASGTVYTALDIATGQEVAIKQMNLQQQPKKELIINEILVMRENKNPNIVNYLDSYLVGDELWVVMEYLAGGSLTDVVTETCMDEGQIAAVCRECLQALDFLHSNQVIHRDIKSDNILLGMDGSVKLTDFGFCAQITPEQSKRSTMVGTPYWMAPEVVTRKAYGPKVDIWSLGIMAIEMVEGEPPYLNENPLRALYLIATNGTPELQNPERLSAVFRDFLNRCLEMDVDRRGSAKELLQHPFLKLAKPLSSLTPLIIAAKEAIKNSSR
PrKX, sequence (P51817 whole entry): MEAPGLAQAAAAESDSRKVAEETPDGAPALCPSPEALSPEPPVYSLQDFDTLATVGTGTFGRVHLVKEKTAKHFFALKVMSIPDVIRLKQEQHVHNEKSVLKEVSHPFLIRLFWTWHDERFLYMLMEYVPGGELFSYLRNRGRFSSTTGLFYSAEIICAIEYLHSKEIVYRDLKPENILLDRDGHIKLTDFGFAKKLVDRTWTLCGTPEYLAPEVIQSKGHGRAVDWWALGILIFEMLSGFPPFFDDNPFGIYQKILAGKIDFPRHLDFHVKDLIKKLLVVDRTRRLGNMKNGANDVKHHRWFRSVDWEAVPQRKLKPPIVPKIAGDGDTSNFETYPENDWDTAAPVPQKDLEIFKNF

A remaining activity at 1 µg/mL (PRAK; 1 ug/ml) of 101%, a remaining activity at 5 µg/mL (PRAK; 5 ug/ml) of 53% and a remaining activity at 1 µg/mL (PAK3; 1 ug/ml) of 21% were found for `COc1cc(O)c(CC=C(C)C)c(O)c1C(=O)/C=C/c1ccc(O)cc1` [Xanthohumol, xanthohumol] in this work. The remaining activity at 5 µg/mL (PAK3; 5 ug/ml) was 18%, the remaining activity at 25 µg/mL (PAK3; 25 ug/ml) was 8% and the remaining activity at 1 µg/mL (PrKX; 1 ug/ml) was 92%. It also gave a remaining activity at 50 µg/mL (PrKX; 50 ug/ml) of 3%, a remaining activity at 1 µg/mL (JAK3; 1 ug/ml) of 104% and a remaining activity at 5 µg/mL (JAK3; 5 ug/ml) of 84%. It also gave a remaining activity at 25 µg/mL (JAK3; 25 ug/ml) of 17%, a remaining activity at 50 µg/mL (JAK3; 50 ug/ml) of 5% and a remaining activity at 1 µg/mL (HIPK2; 1 ug/ml) of 110%. For the same compound, the remaining activity at 5 µg/mL (HIPK2; 5 ug/ml) was 98%, the remaining activity at 1 µg/mL (GSK3β; 1 ug/ml) was 120% and the remaining activity at 5 µg/mL (GSK3β; 5 ug/ml) was 99%. The remaining activity at 25 µg/mL (GSK3β; 25 ug/ml) was 25%, the remaining activity at 50 µg/mL (GSK3β; 50 ug/ml) was 3% and the remaining activity at 1 µg/mL (p70S6K; 1 ug/ml) was 94%. It also gave a remaining activity at 5 µg/mL (p70S6K; 5 ug/ml) of 48%, a remaining activity at 25 µg/mL (p70S6K; 25 ug/ml) of 19% and a remaining activity at 50 µg/mL (p70S6K; 50 ug/ml) of 7%. It also gave a remaining activity at 1 µg/mL (CDK1/cyclinB; 1 ug/ml) of 118%, a remaining activity at 5 µg/mL (CDK1/cyclinB; 5 ug/ml) of 103% and a remaining activity at 25 µg/mL (CDK1/cyclinB; 25 ug/ml) of 46%. For the same compound, the remaining activity at 50 µg/mL (CDK1/cyclinB; 50 ug/ml) was 18%, the remaining activity at 1 µg/mL (PKCβII; 1 ug/ml) was 108% and the remaining activity at 5 µg/mL (PKCβII; 5 ug/ml) was 108%. The remaining activity at 25 µg/mL (PKCβII; 25 ug/ml) was 71%, the remaining activity at 50 µg/mL (PKCβII; 50 ug/ml) was 79% and the remaining activity at 5 µg/mL (SGK) was 84%. The remaining activity at 1 µg/mL (CDK2/cyclinA; 1 ug/ml) was 107%, the remaining activity at 5 µg/mL (CDK2/cyclinA; 5 ug/ml) was 96% and the remaining activity at 25 µg/mL (CDK2/cyclinA; 25 ug/ml) was 57%. The remaining activity at 50 µg/mL (CDK2/cyclinA; 50 ug/ml) was 6%, the remaining activity at 1 µg/mL (DAPK2; 1 ug/ml) was 105% and the remaining activity at 5 µg/mL (DAPK2; 5 ug/ml) was 88%. For the same compound, the remaining activity at 25 µg/mL (DAPK2; 25 ug/ml) was 45%, the remaining activity at 50 µg/mL (DAPK2; 50 ug/ml) was 26% and the remaining activity at 1 µg/mL (MSK2; 1 ug/ml) was 126%. The remaining activity at 5 µg/mL (MSK2; 5 ug/ml) was 61%, the remaining activity at 25 µg/mL (MSK2; 25 ug/ml) was 8% and the remaining activity at 50 µg/mL (MSK2; 50 ug/ml) was 19%. It also gave a remaining activity at 50 µg/mL (CDK3/cyclinE) of 8%, a remaining activity at 1 µg/mL (ErbB4; 1 ug/ml) of 132% and a remaining activity at 5 µg/mL (ErbB4; 5 ug/ml) of 85%. For the same compound, the remaining activity at 25 µg/mL (ErbB4; 25 ug/ml) was 52% and the remaining activity at 50 µg/mL (ErbB4; 50 ug/ml) was 27%.
